Biological target: Serine/threonine-protein kinase RIO2 (Homo sapiens) (UniProt Q9BVS4)
Experiment: Inhibition of N-terminal GST-fused full length human recombinant RIOK2 expressed in baculovirus Sf21 cells assessed as reduction in kinase auto-phosphorylation at 1 uM in presence of ATP incubated for 1 hr by ELISA method

Sequence of Serine/threonine-protein kinase RIO2 (Homo sapiens) (Q9BVS4 whole entry, looked up, the tested form may be a part): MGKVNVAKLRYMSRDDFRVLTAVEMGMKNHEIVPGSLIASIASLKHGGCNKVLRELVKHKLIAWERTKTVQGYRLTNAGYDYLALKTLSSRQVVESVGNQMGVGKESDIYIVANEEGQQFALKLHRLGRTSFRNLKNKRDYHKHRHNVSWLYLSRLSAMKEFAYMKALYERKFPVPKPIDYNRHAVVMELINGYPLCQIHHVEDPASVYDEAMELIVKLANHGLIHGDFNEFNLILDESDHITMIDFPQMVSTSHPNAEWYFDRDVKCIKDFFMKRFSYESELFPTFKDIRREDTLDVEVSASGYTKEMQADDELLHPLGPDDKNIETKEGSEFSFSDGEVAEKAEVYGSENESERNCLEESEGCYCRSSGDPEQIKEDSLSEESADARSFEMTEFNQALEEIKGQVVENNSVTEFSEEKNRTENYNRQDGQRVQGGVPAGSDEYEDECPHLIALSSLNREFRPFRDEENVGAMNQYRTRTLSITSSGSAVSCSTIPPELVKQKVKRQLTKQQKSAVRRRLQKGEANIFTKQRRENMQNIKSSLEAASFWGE

inhibition [%] | Structure (SMILES)
-6 | CCN(CC)CCNC(=O)c1c(C)[nH]c(/C=C2\C(=O)Nc3ccc(-c4ccnn4-c4ccncc4)cc32)c1C
3 | CCN(CC)CCN(C)C(=O)c1c(C)[nH]c(/C=C2\C(=O)Nc3ccc(-c4cnn(-c5ccccc5)c4)cc32)c1C
-2 | Cc1[nH]c(/C=C2\C(=O)Nc3ccc(-c4cnn(-c5ccccc5)c4)cc32)c(C)c1C(=O)NCCc1ncc[nH]1
42 | CCN(CC)CCNC(=O)c1c(C)[nH]c(/C=C2\C(=O)Nc3ccc(-c4cnn(-c5cccnc5)c4)cc32)c1C
13 | Cc1[nH]c(/C=C2\C(=O)Nc3ccc(-c4cnn(-c5ccccc5)c4)cc32)c(C)c1C(=O)NC[C@@H]1CCCN1
22 | Cc1[nH]c(/C=C2\C(=O)Nc3ccc(-c4cnn(-c5ccccc5)c4)cc32)c(C)c1C(=O)N[C@@H]1CCCNC1
1.4 | Cc1[nH]c(/C=C2\C(=O)Nc3ccc(-c4cnn(-c5ccccc5)c4)cc32)c(C)c1C(=O)N[C@H]1CCCNC1
20 | CCN(CC)CCCNC(=O)c1c(C)[nH]c(/C=C2\C(=O)Nc3ccc(-c4cnn(-c5ccccc5)c4)cc32)c1C
29 | CCN(CC)CCNC(=O)c1c(C)[nH]c(/C=C2\C(=O)Nc3ccc(-c4ccnn4-c4cccc(C)c4)cc32)c1C
22 | Cc1[nH]c(/C=C2\C(=O)Nc3ccc(-c4cnn(-c5ccccc5)c4)cc32)c(C)c1C(=O)N[C@H]1[C@@H]2CNC[C@@H]21
9 | CCN(CC)CCNC(=O)c1c(C)[nH]c(/C=C2\C(=O)Nc3ccc(-c4ccnn4-c4ccc(C(F)(F)F)cc4)cc32)c1C
17 | Cc1[nH]c(/C=C2\C(=O)Nc3ccc(-c4cnn(-c5ccccc5)c4)cc32)c(C)c1C(=O)NC1CCNCC1
7 | Cc1[nH]c(/C=C2\C(=O)Nc3ccc(-c4cnn(-c5ccccc5)c4)cc32)c(C)c1C(=O)NCC1(N)CCCC1
39 | CCN(CC)CCNC(=O)c1c(C)[nH]c(/C=C2\C(=O)Nc3ccc(-c4ccnn4-c4ccc(F)cc4)cc32)c1C
6 | Cc1[nH]c(/C=C2\C(=O)Nc3ccc(-c4cnn(-c5ccccc5)c4)cc32)c(C)c1C(=O)NC1(CN2CCCCC2)CC1
40 | CCN(CC)CCNC(=O)c1c(C)[nH]c(/C=C2\C(=O)Nc3ccc(-c4cnn(-c5ccncn5)c4)cc32)c1C
41 | CCN(CC)CCNC(=O)c1c(C)[nH]c(/C=C2\C(=O)Nc3ccc(-c4cnn(-c5cscn5)c4)cc32)c1C
34 | CCN(CC)CCNC(=O)c1c(C)[nH]c(/C=C2\C(=O)Nc3ccc(-c4ccnn4-c4ccc(OC)cc4)cc32)c1C
56 | CCN(CC)CCNC(=O)c1c(C)[nH]c(/C=C2\C(=O)Nc3ccc(-c4ccnn4-c4ccccc4F)cc32)c1C
47 | CCN(CC)CCNC(=O)c1c(C)[nH]c(/C=C2\C(=O)Nc3ccc(-c4cnn(-c5cnccn5)c4)cc32)c1C

Biological target: Serine/threonine-protein kinase RIO2 (Homo sapiens) (UniProt Q9BVS4)
Experiment: Inhibition of N-terminal GST-fused full length human recombinant RIOK2 expressed in baculovirus Sf21 cells assessed as reduction in kinase auto-phosphorylation at 10 uM in presence of ATP incubated for 1 hr by ELISA method

inhibition [%] | Structure (SMILES)
44 | CCN(CC)CCNC(=O)c1c(C)[nH]c(/C=C2\C(=O)Nc3ccc(-c4ccnn4-c4ccncc4)cc32)c1C
113 | CCN(CC)CCN(C)C(=O)c1c(C)[nH]c(/C=C2\C(=O)Nc3ccc(-c4cnn(-c5ccccc5)c4)cc32)c1C
25 | Cc1[nH]c(/C=C2\C(=O)Nc3ccc(-c4cnn(-c5ccccc5)c4)cc32)c(C)c1C(=O)NCCc1ncc[nH]1
82 | CCN(CC)CCNC(=O)c1c(C)[nH]c(/C=C2\C(=O)Nc3ccc(-c4cnn(-c5cccnc5)c4)cc32)c1C
94 | Cc1[nH]c(/C=C2\C(=O)Nc3ccc(-c4cnn(-c5ccccc5)c4)cc32)c(C)c1C(=O)NC[C@@H]1CCCN1
130 | Cc1[nH]c(/C=C2\C(=O)Nc3ccc(-c4cnn(-c5ccccc5)c4)cc32)c(C)c1C(=O)N[C@@H]1CCCNC1
122 | Cc1[nH]c(/C=C2\C(=O)Nc3ccc(-c4cnn(-c5ccccc5)c4)cc32)c(C)c1C(=O)N[C@H]1CCCNC1
96 | CCN(CC)CCCNC(=O)c1c(C)[nH]c(/C=C2\C(=O)Nc3ccc(-c4cnn(-c5ccccc5)c4)cc32)c1C
137 | CCN(CC)CCNC(=O)c1c(C)[nH]c(/C=C2\C(=O)Nc3ccc(-c4ccnn4-c4cccc(C)c4)cc32)c1C
134 | Cc1[nH]c(/C=C2\C(=O)Nc3ccc(-c4cnn(-c5ccccc5)c4)cc32)c(C)c1C(=O)N[C@H]1[C@@H]2CNC[C@@H]21
68 | CCN(CC)CCNC(=O)c1c(C)[nH]c(/C=C2\C(=O)Nc3ccc(-c4ccnn4-c4ccc(C(F)(F)F)cc4)cc32)c1C
140 | Cc1[nH]c(/C=C2\C(=O)Nc3ccc(-c4cnn(-c5ccccc5)c4)cc32)c(C)c1C(=O)NC1CCNCC1
65 | Cc1[nH]c(/C=C2\C(=O)Nc3ccc(-c4cnn(-c5ccccc5)c4)cc32)c(C)c1C(=O)NCC1(N)CCCC1
104 | CCN(CC)CCNC(=O)c1c(C)[nH]c(/C=C2\C(=O)Nc3ccc(-c4ccnn4-c4ccc(F)cc4)cc32)c1C
107 | Cc1[nH]c(/C=C2\C(=O)Nc3ccc(-c4cnn(-c5ccccc5)c4)cc32)c(C)c1C(=O)NC1(CN2CCCCC2)CC1
109 | CCN(CC)CCNC(=O)c1c(C)[nH]c(/C=C2\C(=O)Nc3ccc(-c4cnn(-c5ccncn5)c4)cc32)c1C
99 | CCN(CC)CCNC(=O)c1c(C)[nH]c(/C=C2\C(=O)Nc3ccc(-c4cnn(-c5cscn5)c4)cc32)c1C
106 | CCN(CC)CCNC(=O)c1c(C)[nH]c(/C=C2\C(=O)Nc3ccc(-c4ccnn4-c4ccc(OC)cc4)cc32)c1C
116 | CCN(CC)CCNC(=O)c1c(C)[nH]c(/C=C2\C(=O)Nc3ccc(-c4ccnn4-c4ccccc4F)cc32)c1C
95 | CCN(CC)CCNC(=O)c1c(C)[nH]c(/C=C2\C(=O)Nc3ccc(-c4cnn(-c5cnccn5)c4)cc32)c1C
